Seven molecules from patent US6653306B1, “Epoxy-steroidal aldosterone antagonist and angiotensin II antagonist combination therapy” (G.D. Searle & Co., priority 1995, dated 2003) can be followed below.

Several values for one entry are separate records, joined by “and”; a condition that tells them apart may be missing. Identical values can stand only once.

For assay [1], the target named is angiotensin II AT1 receptor. Put plainly: Assay A: Angiotensin II binding activity (125I-AII displacement, rat uterine membrane preparation).
The test system of the next assay is rabbit aortic rings. Nature of the assay: Assay B: In vitro vascular smooth muscle response for AII (antagonist activity, pA2). It is filed as cell-based. As to conditions: in vitro vascular smooth muscle response, two values per cell separated by / are separate determinations; for Kb: Oryctolagus cuniculus, read-out: Assay B pA2 (converted). In outline: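 Endothelium-denuded thoracic aortic rings from male New Zealand white rabbits, in oxygenated Krebs at 37 °C under ~1 g tension; isometric contraction to AII (3×10^−10 to 1×10^−5 M).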

The next assay concerns pressor response to AII. Put plainly: Assay C: In vivo intragastric pressor assay response for AII antagonists. Set-up: species or system rat. As to conditions: intragastric, or intraduodenal for examples listed; for inhibition at 3 mg/kg: Rattus norvegicus; for inhibition at 3 mg/kg / Assay C Duration: dose 3 mg/kg. In outline: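 Conscious male Sprague-Dawley rats with arterial and venous catheters received 30 ng/kg i.v. angiotensin II boluses before and at 30–180 min after gavage of compound (standard 3 mg/kg in 0.5% methylcellulose). Pressor rise in mmHg measured; percent inhibition calculated versus averaged control response at each time point.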

Regarding `CCCCn1nc(-c2ccccc2Cl)nc1Cc1ccc(-c2ccccc2-c2nnn[nH]2)nc1` [Compound 158], the IC50 (in general, the concentration needed to halve the response being measured) in assay [1] was determined as 54 nM. In the assay on rabbit aortic rings, the Kb was 5.89 nM. In the assay on pressor response to AII, testing at 3 mg/kg gave an inhibition of 30% and the “Assay C Duration” value is greater than 180 min.
Regarding `CCCCc1cn(-c2c(C)cc(C)cc2C)c(=O)n1Cc1ccc(-c2ccccc2-c2nnn[nH]2)cc1` [Compound 278], in assay [1], the IC50 amounted to 30 nM. Besides, the “Assay B pA2” value in the assay on rabbit aortic rings is 8.49 and 8.51. Also, in the assay with pressor response to AII, the inhibition (usually the drop in the measured response relative to a control, in per cent) at 3 mg/kg was 50% and the “Assay C Duration” value was greater than 180 min.
In the case of `CCCCc1cn(CCc2ccccc2)c(=O)n1Cc1ccc(-c2ccccc2-c2nnn[nH]2)cc1` [Compound 133], the IC50 in assay [1] came to 10 nM. Besides, the Kb with rabbit aortic rings was 2 nM. Moreover, in the assay with pressor response to AII, at 3 mg/kg the inhibition was 20% and the “Assay C Duration” value came to 180 min.
Take `CCCCc1cn(-c2c(CC)cccc2CC)c(=O)n1Cc1ccc(-c2ccccc2-c2nnn[nH]2)cc1` [Compound 276]: the IC50 in assay [1] is 33 nM. Besides, the “Assay B pA2” value with rabbit aortic rings was 8.71 and 8.64. For the same molecule, in the assay on pressor response to AII, the inhibition at 3 mg/kg is less than 20%.
In turn, `CCCCc1nn(CC(O)c2ccccc2)c(=O)n1Cc1ccc(-c2ccccc2-c2nn[nH]n2)cc1` (centres unmarked) [Compound 83] came in with an IC50 in assay [1] of 3.6 nM. Also, the Kb in the assay with rabbit aortic rings is 5.01 nM. The “Assay C Inhibition” value in the assay with pressor response to AII (dose cell empty (dose not given)) is given as 15%.
In assay [1], `CCCCc1nc(C(F)(F)CCC)nn1Cc1ccc(-c2ccccc2-c2nnn[nH]2)nc1` [Compound 247] came in with a half-maximal inhibitory concentration (IC50) of 9.4 nM. The Kb with rabbit aortic rings is 5.5 nM. Moreover, in the assay on pressor response to AII, at 3 mg/kg the inhibition was 20% and the “Assay C Duration” value was found to be 180 min.
`CCCCc1cn(-c2c(C)cccc2Cl)c(=O)n1Cc1ccc(-c2ccccc2-c2nnn[nH]2)cc1` [Compound 274] returned an IC50 in assay [1] of 13 nM. Moreover, the “Assay B pA2” value in the assay on rabbit aortic rings was 9.06 and 8.85. In the assay with pressor response to AII, 3 mg/kg produced 35% inhibition and the “Assay C Duration” value was greater than 180 min.
